Where two headings read alike, the source gives them in different places.
Experiments:
L929 cells = assay: Inhibition of TNF-induced programmed necrosis of L929 cells (Cell Titer-Glo viability); format: cell-based, mouse
Summary of the method: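 Mouse L929 fibroblasts were diluted to 6.25×10^4/ml, plated at 40 μl per well in 384-well plates, and incubated 12 hours at 37° C., 5% CO2. Compounds were added, with SM164 (500 nM) for the combination arm, and pretreated 1 h before TNFα (500 ng/mL). After 14 h, viability was read by Cell Titer-Glo luminescence against unstimulated DMSO controls, and EC50 values were fitted in Prism Graphpad.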

FADD−/− Jurkat cells = assay: Inhibition of TNF-induced programmed necrosis of FADD deficient Jurkat cells (Cell Titer-Glo viability); format: cell-based; conditions: at 1000-fold effective inhibitory concentration (1 μM); FADD-deficient Jurkat cells or L929 cells
[1] = Liver microsomal stability test, human; format: in vitro ADME
Text: The adopted biological test protocol was: testing the half-life of the compound in human- or mouse-derived liver microsomes.
Liver microsomes contain many enzymes involved in drug metabolism, especially cytochrome P-450, and therefore it is one of the major tissues involved in drug metabolism in living organisms. There are some correlations between the stability of the compound in liver microsomes and the pharmacogenetic stability thereof in vivo. Therefore, the relative stability of compounds in vivo can be roughly predicted by testing the half-life of different compounds in human- or mouse-derived liver microsomes. The specific methods were as follows:
Methods: 0.75 μL of 0.5 mM samples (compounds to be tested and control verapamil), 9.38 μL of 20 mg/mL liver microsomes (Human and Mouse) were taken and added to 239.88 μL PBS (on ice), and divided into 30 μL/tube samples respectively. The samples were incubated at 37° C. in a constant temperature water bath for 5 min, and then all samples were taken out. At zero-time, control group was added with 90 μL of ice acetonitrile first, and then added with 15 μL of 3 mM NADPH solution sequentially, and incubated at 37° C. in a constant temperature water bath. The corresponding samples were taken out after 5 min, 10 min, 20 min, 30 min and 60 min, respectively, and quenched by adding 90 μL of ice acetonitrile. All samples were centrifuged at 10000 rpm for 10 min, and the supernatants were taken and placed in a liquid phase vial waiting for LC-MS analysis.

With `Cn1ncc(C(=O)NCc2ccc(-n3cnc4c(N)ncnc43)cc2)c1Cc1ccccc1` [QY-10-40] as the compound, how does the “concentration that essentially completely inhibits TNFα-induced programmed necrosis” value (L929 cells; L929 cells) read?
The value was “above 1 nM”.

What about the EC50 (L929 cells; L929 cells, stimulated with TNFα + SM164, read-out: EC50 (μM) L929 cells (mouse) TNFα + SM164) of the same compound?
Its EC50 is 0.00145 µM.

And the EC50 (L929 cells; L929 cells, stimulated with TNFα alone, read-out: EC50 (μM) L929 cells (mouse) TNFα)?
Its EC50 is 0.00048 µM.

What about the “inhibition of programmed necrosis (in words)” value (L929 cells; mouse-derived L929 cells) of the same compound?
Its value is “excellently inhibit the occurrence of programmed necrosis”.

What about the cytotoxicity (FADD−/− Jurkat cells) of the same compound?
Its cytotoxicity is “does not exhibit any cytotoxicity”.

And the “stability in liver microsomes (in words)” value ([1]; human derived liver microsomes)?
Its value is “good stability”.

What about the “T1/2 (min) Human” value ([1]; human liver microsomes, NADPH, 37° C.) of the same compound?
Its value is 40.8 min.

— patent US20230331707A1, “PROGRAMMED CELL NECROSIS INHIBITOR, PREPARATION METHOD THEREFOR, AND USE THEREOF” (Shanghai Institute of Organic Chemistry, Chinese Academy of …, priority 2020, published 2023)
